Results from PubChem BioAssay AID1259411 (Chemical Carcinogenesis Research Information System (CCRIS), 2018).
Active and inactive are the calls of the source. How the calls were made is not given here.

Tested on: rodent carcinogenicity bioassays, tumor incidence
Experiment: CCRIS carcinogenicity studies
Method in brief: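 Archive of carcinogenicity, mutagenicity, tumor promotion and tumor inhibition results drawn from journals, NCI reports and other sources, expert-reviewed; covers 1985-2011 and is no longer updated.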

In the case of `[P]#[Ga]`, the carcinogen call (Species: MOUSE, Strain/Sex: ICR/MALE, Route: INTRAPERITONEAL, Dose: 0, 48, 480 MG/KG AS GALLIUM SUSPENDED IN OLIVE OIL ONCE (STUDY DURATION: 18 MO), Dose: 0, 48, 480 MG/KG AS GALLIUM SUSPENDED IN OLIVE OIL ONCE (STUDY DURATION: 18 MO)) is reported as “inactive; negative” and the carcinogen call (Species: MOUSE, Strain/Sex: ICR/MALE, Route: SUBCUTANEOUS, Dose: 0, 48, 480 MG/KG AS GALLIUM SUSPENDED IN OLIVE OIL ONCE (STUDY DURATION: 18 MO), Dose: 0, 48, 480 MG/KG AS GALLIUM SUSPENDED IN OLIVE OIL ONCE (STUDY DURATION: 18 MO)) is reported as “inactive; negative”.
`CC(C)O` was tested, and the carcinogen call (Species: MOUSE, Strain/Sex: CD-1/FEMALE, Route: INHALATION, Dose: 0, 500, 2500, 5000 PPM 6 HR/D 5 D/WK FOR 78 WK (STUDY DURATION: 78 WK), Dose: 0, 500, 2500, 5000 PPM 6 HR/D 5 D/WK FOR 78 WK (STUDY DURATION: 78 WK)) was “inactive; negative”, the carcinogen call (Species: MOUSE, Strain/Sex: CD-1/MALE, Route: INHALATION, Dose: 0, 500, 2500, 5000 PPM 6 HR/D 5 D/WK FOR 78 WK (STUDY DURATION: 78 WK), Dose: 0, 500, 2500, 5000 PPM 6 HR/D 5 D/WK FOR 78 WK (STUDY DURATION: 78 WK)) was “inactive; negative” and the carcinogen call (Species: RAT, Strain/Sex: F344/FEMALE, Route: INHALATION, Dose: 0, 500, 2500, 5000 PPM 6 HR/D 5 D/WK FOR 104 WK (STUDY DURATION: 104 WK), Dose: 0, 500, 2500, 5000 PPM 6 HR/D 5 D/WK FOR 104 WK (STUDY DURATION: 104 WK)) was “inactive; negative”. The carcinogen call (Species: RAT, Strain/Sex: F344/MALE, Route: INHALATION, Dose: 0, 500, 2500, 5000 PPM 6 HR/D 5 D/WK FOR 104 WK (STUDY DURATION: 104 WK), Dose: 0, 500, 2500, 5000 PPM 6 HR/D 5 D/WK FOR 104 WK (STUDY DURATION: 104 WK)) was “inactive; negative”.
In the case of `Nc1c(Cl)c(Cl)nc(C(=O)O)c1Cl`, the carcinogen call (Species: MOUSE, Strain/Sex: B6C3F1/FEMALE, Route: ORAL, Dose: 0, 2531, 5062 PPM IN DIET FOR 80 WK (STUDY DURATION: 90 WK), Dose: 0, 2531, 5062 PPM IN DIET FOR 80 WK (STUDY DURATION: 90 WK)) is reported as “inactive; negative”, the carcinogen call (Species: MOUSE, Strain/Sex: B6C3F1/MALE, Route: ORAL, Dose: 0, 2531, 5062 PPM IN DIET FOR 80 WK (STUDY DURATION: 90 WK), Dose: 0, 2531, 5062 PPM IN DIET FOR 80 WK (STUDY DURATION: 90 WK)) is reported as “inactive; negative” and the carcinogen call (Species: RAT, Strain/Sex: F344/FEMALE, Route: ORAL, Dose: 0, 20, 60, 200 MG/KG/D OF TECHNICAL GRADE PICLORAM IN FEED FOR 2 YR (STUDY DURATION: 2 YR), Dose: 0, 20, 60, 200 MG/KG/D OF TECHNICAL GRADE PICLORAM IN FEED FOR 2 YR (STUDY DURATION: 2 YR)) is reported as “inactive; negative”. For the same molecule, the carcinogen call (Species: RAT, Strain/Sex: F344/MALE, Route: ORAL, Dose: 0, 20, 60, 200 MG/KG/D OF TECHNICAL GRADE PICLORAM IN FEED FOR 2 YR (STUDY DURATION: 2 YR), Dose: 0, 20, 60, 200 MG/KG/D OF TECHNICAL GRADE PICLORAM IN FEED FOR 2 YR (STUDY DURATION: 2 YR)) was “inactive; negative”, the carcinogen call (Species: RAT, Strain/Sex: OSBORNE-MENDEL/FEMALE, Route: ORAL, Dose: 0, 7437, 14875 PPM IN DIET FOR 80 WK (STUDY DURATION: 113 WK), Dose: 0, 7437, 14875 PPM IN DIET FOR 80 WK (STUDY DURATION: 113 WK), Tumor Site: Type of Lesion: LIVER: NEOPLASTIC NODULE) was “equivocal” and the carcinogen call (Species: RAT, Strain/Sex: OSBORNE-MENDEL/MALE, Route: ORAL, Dose: 0, 7437, 14875 PPM IN DIET FOR 80 WK (STUDY DURATION: 113 WK), Dose: 0, 7437, 14875 PPM IN DIET FOR 80 WK (STUDY DURATION: 113 WK)) was “inactive; negative”.
With `ClC1=C(Cl)[C@]2(Cl)[C@@H]3[C@H]4C[C@H]([C@@H]5O[C@H]45)[C@@H]3[C@@]1(Cl)C2(Cl)Cl` the carcinogen call (Species: MOUSE, Strain/Sex: B6C3F1/FEMALE, Route: ORAL, Dose: 0, 2.5, 5 PPM IN DIET, TWA, Dose: 0, 2.5, 5 PPM IN DIET, TWA) was “inactive; negative”, the carcinogen call (Species: MOUSE, Strain/Sex: B6C3F1/MALE, Route: ORAL, Dose: 0, 1.6, 3.2 PPM IN DIET, TWA, Dose: 0, 1.6, 3.2 PPM IN DIET, TWA) was “inactive; negative” and the carcinogen call (Species: RAT, Strain/Sex: OSBORNE-MENDEL/FEMALE, Route: ORAL, Dose: 0, 3, 6 PPM IN DIET, TWA, Dose: 0, 3, 6 PPM IN DIET, TWA) was “inactive; negative”. The carcinogen call (Species: RAT, Strain/Sex: OSBORNE-MENDEL/MALE, Route: ORAL, Dose: 0, 2.5, 5 PPM IN DIET, TWA, Dose: 0, 2.5, 5 PPM IN DIET, TWA) was “inactive; negative”.
With `O=[As](O)(O)O` the carcinogen call (Species: MOUSE, Strain/Sex: SWISS/FEMALE, Route: INTRAVENOUS, Dose: 0, 0.5 MG/KG/WK FOR 20 WK (STUDY DURATION: 96 WK)) was “inactive; negative” and the carcinogen call (Species: MOUSE, Strain/Sex: SWISS/MALE, Route: INTRAVENOUS, Dose: 0, 0.5 MG/KG/WK FOR 20 WK (STUDY DURATION: 96 WK)) was “inactive; negative”.
In the case of `OCCN(CCO)CCO`, the carcinogen call (Species: MOUSE, Route: ORAL, Tumor Site: Type of Lesion: LYMPHATIC SYSTEM) is reported as “active; positive”, the carcinogen call (Species: MOUSE, Strain/Sex: B6C3F1/FEMALE, Route: DERMAL, Dose: 0, 100, 300, 1000 MG/KG 5 D/WK FOR 104 -105 WKS (STUDY DURATION: 105 WKS), Dose: 0, 100, 300, 1000 MG/KG 5 D/WK FOR 104 -105 WKS (STUDY DURATION: 105 WKS), Tumor Site: Type of Lesion: LIVER: HEPATOCELLULAR ADENOMA OR CARCINOMA) is reported as “active; positive” and the carcinogen call (Species: MOUSE, Strain/Sex: B6C3F1/FEMALE, Route: ORAL, Dose: 0, 1, 2% IN DRINKING WATER FOR 82 WK (STUDY DURATION: 82 WK), Dose: 0, 1, 2% IN DRINKING WATER FOR 82 WK (STUDY DURATION: 82 WK)) is reported as “inactive; negative”. The carcinogen call (Species: MOUSE, Strain/Sex: B6C3F1/MALE, Route: DERMAL, Dose: 0, 200, 630, 2000 MG/KG 5D/WK FOR 104 WKS (STUDY DURATION: 104 WKS), Dose: 0, 200, 630, 2000 MG/KG 5D/WK FOR 104 WKS (STUDY DURATION: 104 WKS), Tumor Site: Type of Lesion: LIVER: HEMANGIOSARCOMA AT MEDIAN DOSE LEVEL) was “equivocal; p=0.047 at median dose for hemangiosarcoma”, the carcinogen call (Species: MOUSE, Strain/Sex: B6C3F1/MALE, Route: ORAL, Dose: 0, 1, 2% IN DRINKING WATER FOR 82 WK (STUDY DURATION: 82 WK), Dose: 0, 1, 2% IN DRINKING WATER FOR 82 WK (STUDY DURATION: 82 WK)) was “inactive; negative” and the carcinogen call (Species: RAT, Strain/Sex: F344/FEMALE, Route: DERMAL, Dose: 0, 32, 63, 125 MG/KG 5 D/WK FOR 103 WK (STUDY DURATION: 103 WK), Dose: 0, 32, 63, 125 MG/KG 5 D/WK FOR 103 WK (STUDY DURATION: 103 WK)) was “inactive; negative”. The carcinogen call (Species: RAT, Strain/Sex: F344/MALE, Route: DERMAL, Dose: 0, 32, 63, 125 MG/KG 5 D/WK FOR 103 WK (STUDY DURATION: 103 WK), Dose: 0, 32, 63, 125 MG/KG 5 D/WK FOR 103 WK (STUDY DURATION: 103 WK), Tumor Site: Type of Lesion: KIDNEY: RENAL TUBULE ADENOMA) was “equivocal”.
For `CN(C)c1ccc(C(=O)c2ccc(N(C)C)cc2)cc1`, the carcinogen call (Species: MOUSE, Strain/Sex: B6C3F1/FEMALE, Route: ORAL, Dose: 0, 1250, 2500 PPM IN DIET, Dose: 0, 1250, 2500 PPM IN DIET, Tumor Site: Type of Lesion: LIVER: HEPATOCELLULAR ADENOMA OR CARCINOMA) was “active; positive”, the carcinogen call (Species: MOUSE, Strain/Sex: B6C3F1/MALE, Route: ORAL, Dose: 0, 1250, 2500 PPM IN DIET, Dose: 0, 1250, 2500 PPM IN DIET, Tumor Site: Type of Lesion: INTEGUMENTARY SYSTEM (SUBCUTANEOUS TISSUE): HEMANGIOSARCOMA OR HEMANGIOMA) was “active; positive” and the carcinogen call (Species: RAT, Strain/Sex: F344/FEMALE, Route: ORAL, Dose: 0, 500, 1000 PPM IN DIET, Dose: 0, 500, 1000 PPM IN DIET, Tumor Site: Type of Lesion: LIVER: HEPATOCELLULAR CARCINOMA OR NEOPLASTIC NODULE) was “active; positive”. For the same molecule, the carcinogen call (Species: RAT, Strain/Sex: F344/MALE, Route: ORAL, Dose: 0, 250, 500 PPM IN DIET, Dose: 0, 250, 500 PPM IN DIET, Tumor Site: Type of Lesion: LIVER: HEPATOCELLULAR CARCINOMA OR NEOPLASTIC NODULE) was “active; positive”.
In the case of `NC(=O)N(CCF)N=O`, the carcinogen call (Species: RAT, Strain/Sex: F344/MALE, Route: GAVAGE, Dose: 0, 1.75 MG/ML (TOTAL DOSE 0; 0.2 MMOL) IN 2 ML ETHYL ACETATE AND CORN OIL (1:2) 2/WK FOR 40 WK (STUDY DURATION: LIFETIME, Dose: 0, 1.75 MG/ML (TOTAL DOSE 0; 0.2 MMOL) IN 2 ML ETHYL ACETATE AND CORN OIL (1:2) 2/WK FOR 40 WK (STUDY DURATION: LIFETIME) is reported as “inactive; negative” and the carcinogen call (Species: RAT, Strain/Sex: F344/MALE, Route: GAVAGE, Dose: 0, 1.75 MG/ML IN 0.2 ML ETHYL ACETATE AND CORN OIL 2/WK FOR 40 WK (STUDY DURATION: LIFESPAN), Tumor Site: Type of Lesion: FORESTOMACH: TUMOR) is reported as “active; positive”.
